From BindingDB's records for doi:10.1124/jpet.105.097303 (Temple University, 2006)

Legend:
[1] = biological target: T1, 1-phosphatidylinositol 4,5-bisphosphate phosphodiesterase delta-4 (Rattus norvegicus, UniProt Q62711)
T1 sequence (Q62711 whole entry): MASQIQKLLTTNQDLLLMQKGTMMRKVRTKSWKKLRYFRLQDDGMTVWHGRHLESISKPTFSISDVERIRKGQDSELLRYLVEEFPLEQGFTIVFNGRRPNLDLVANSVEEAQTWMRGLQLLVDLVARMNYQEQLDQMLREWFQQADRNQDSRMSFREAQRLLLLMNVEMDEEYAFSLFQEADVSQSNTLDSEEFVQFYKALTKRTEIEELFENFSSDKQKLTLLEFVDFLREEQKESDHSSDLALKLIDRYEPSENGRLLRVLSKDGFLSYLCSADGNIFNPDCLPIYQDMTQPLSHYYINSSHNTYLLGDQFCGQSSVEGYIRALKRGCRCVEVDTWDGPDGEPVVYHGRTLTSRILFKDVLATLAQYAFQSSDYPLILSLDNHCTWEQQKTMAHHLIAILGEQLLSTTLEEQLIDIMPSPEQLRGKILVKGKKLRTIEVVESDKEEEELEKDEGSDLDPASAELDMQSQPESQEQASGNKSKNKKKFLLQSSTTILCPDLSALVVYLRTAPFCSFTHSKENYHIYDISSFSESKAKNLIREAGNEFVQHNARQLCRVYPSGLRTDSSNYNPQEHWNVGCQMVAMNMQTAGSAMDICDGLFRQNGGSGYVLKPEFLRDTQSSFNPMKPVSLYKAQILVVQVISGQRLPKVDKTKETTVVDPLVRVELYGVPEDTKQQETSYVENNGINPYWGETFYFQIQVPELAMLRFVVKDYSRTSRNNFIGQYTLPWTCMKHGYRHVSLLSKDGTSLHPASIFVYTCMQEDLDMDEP

[2] = biological target: T2, 1-phosphatidylinositol 4,5-bisphosphate phosphodiesterase beta-1 (Rattus norvegicus, UniProt P10687)
T2 sequence (P10687 whole entry): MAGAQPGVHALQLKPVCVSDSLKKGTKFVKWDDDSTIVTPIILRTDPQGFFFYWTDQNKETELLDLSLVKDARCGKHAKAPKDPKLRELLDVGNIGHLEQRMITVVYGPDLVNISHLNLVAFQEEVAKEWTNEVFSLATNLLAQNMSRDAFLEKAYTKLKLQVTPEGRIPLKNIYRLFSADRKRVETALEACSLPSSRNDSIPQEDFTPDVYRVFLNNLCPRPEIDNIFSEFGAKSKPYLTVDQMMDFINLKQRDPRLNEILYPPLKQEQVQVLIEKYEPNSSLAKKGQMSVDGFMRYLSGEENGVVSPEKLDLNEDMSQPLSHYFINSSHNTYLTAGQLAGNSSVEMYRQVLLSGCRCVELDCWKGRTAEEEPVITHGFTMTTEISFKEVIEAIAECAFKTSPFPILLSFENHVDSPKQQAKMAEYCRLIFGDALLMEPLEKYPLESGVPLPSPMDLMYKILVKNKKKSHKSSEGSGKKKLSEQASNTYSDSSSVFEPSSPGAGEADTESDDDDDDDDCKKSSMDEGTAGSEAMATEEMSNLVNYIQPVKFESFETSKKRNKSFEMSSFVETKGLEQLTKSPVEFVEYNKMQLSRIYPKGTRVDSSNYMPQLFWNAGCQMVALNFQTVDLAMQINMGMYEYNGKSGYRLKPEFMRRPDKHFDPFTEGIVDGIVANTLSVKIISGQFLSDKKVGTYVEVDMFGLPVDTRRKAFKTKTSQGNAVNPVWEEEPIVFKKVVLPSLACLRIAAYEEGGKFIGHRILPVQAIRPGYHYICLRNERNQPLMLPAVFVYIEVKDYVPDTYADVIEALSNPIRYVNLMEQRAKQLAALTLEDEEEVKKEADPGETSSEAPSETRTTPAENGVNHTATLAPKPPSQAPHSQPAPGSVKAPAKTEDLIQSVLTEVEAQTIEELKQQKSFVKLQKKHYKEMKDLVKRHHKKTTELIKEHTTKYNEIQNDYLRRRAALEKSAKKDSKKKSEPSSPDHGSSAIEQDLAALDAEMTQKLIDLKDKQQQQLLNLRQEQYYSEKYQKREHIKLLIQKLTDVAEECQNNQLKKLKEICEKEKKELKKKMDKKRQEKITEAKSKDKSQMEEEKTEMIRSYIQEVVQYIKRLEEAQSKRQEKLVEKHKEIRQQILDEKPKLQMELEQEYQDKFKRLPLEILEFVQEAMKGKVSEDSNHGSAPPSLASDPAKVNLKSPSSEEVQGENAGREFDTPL

[3] = biological target: Rho-associated protein kinase 2 (Rattus norvegicus, UniProt Q62868)
[4] = biological target: Protein kinase C alpha type (Rattus norvegicus, UniProt P05696)
[5] = biological target: cAMP-dependent protein kinase catalytic subunit beta (Rattus norvegicus, UniProt P68182)
[6] = biological target: T3, cGMP-dependent protein kinase 1 (Homo sapiens, UniProt Q13976)
T3 sequence (Q13976 whole entry): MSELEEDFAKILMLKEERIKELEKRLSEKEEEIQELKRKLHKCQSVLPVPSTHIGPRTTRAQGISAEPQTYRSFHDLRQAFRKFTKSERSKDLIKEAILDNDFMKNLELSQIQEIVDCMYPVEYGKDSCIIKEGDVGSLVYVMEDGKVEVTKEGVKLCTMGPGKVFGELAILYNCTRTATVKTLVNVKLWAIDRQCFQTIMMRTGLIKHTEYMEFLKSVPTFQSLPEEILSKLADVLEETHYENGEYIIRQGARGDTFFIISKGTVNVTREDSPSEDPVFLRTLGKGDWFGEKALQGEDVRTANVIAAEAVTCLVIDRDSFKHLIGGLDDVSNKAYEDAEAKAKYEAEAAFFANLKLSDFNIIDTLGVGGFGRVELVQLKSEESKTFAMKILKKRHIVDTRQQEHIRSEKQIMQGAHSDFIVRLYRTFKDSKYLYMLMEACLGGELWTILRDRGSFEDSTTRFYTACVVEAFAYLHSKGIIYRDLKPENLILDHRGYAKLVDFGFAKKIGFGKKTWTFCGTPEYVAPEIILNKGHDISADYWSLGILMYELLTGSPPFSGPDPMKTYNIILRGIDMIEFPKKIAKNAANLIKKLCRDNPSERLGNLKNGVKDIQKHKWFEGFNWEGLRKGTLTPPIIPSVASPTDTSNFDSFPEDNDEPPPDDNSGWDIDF

Sequence of Rho-associated protein kinase 2 (Q62868 whole entry): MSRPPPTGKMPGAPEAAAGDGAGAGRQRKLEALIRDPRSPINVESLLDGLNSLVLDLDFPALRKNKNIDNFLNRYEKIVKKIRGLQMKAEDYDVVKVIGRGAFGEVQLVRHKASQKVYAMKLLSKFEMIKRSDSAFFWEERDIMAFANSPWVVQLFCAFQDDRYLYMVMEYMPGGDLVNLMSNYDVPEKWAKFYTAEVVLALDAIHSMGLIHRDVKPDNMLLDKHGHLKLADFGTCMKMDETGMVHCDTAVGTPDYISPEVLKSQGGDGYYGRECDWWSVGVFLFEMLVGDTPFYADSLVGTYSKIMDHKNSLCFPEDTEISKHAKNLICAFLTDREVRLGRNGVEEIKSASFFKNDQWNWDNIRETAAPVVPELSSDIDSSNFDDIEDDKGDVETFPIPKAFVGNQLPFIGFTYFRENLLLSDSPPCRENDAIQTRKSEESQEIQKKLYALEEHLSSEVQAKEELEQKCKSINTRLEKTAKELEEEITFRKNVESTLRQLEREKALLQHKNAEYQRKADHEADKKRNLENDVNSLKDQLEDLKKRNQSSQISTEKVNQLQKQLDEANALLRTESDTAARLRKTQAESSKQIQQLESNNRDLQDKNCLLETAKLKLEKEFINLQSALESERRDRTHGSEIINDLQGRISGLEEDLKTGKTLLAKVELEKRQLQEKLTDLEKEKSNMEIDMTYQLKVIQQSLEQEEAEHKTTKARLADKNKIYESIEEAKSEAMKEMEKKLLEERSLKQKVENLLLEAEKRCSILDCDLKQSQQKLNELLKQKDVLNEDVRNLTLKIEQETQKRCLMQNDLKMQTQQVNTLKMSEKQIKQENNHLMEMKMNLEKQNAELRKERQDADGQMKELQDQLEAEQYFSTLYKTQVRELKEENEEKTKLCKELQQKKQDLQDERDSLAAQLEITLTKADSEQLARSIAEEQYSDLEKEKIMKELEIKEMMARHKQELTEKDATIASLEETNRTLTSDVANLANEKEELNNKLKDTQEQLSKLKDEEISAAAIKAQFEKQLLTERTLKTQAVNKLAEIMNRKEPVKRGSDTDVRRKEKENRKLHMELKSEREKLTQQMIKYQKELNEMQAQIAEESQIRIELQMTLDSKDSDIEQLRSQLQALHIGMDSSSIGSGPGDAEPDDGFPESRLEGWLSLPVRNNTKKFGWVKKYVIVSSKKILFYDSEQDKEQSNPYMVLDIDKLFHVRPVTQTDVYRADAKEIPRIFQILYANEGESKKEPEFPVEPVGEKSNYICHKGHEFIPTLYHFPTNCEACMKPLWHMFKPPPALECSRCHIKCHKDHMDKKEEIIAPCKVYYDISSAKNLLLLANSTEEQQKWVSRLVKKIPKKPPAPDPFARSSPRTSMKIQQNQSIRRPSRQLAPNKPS

Compound | Ki [2] [nM] | Ki [3] [nM] | Ki [5] [nM] | Ki [4] [nM] | other results
COc1ccc2c(c[n+](C)c3c4cc5c(cc4ccc23)OCO5)c1OC | – | – | – | 660 | –
CCCCCCCCCCCCCCCCCCOC[C@H](COP(=O)([O-])OCC[N+](C)(C)C)OC [CAS_77286-66-9] | 5000 | – | – | – | –
O=S(=O)(NCCNC/C=C/c1ccc(Br)cc1)c1cccc2cnccc12 | – | 270 | 50 | – | Ki [6]: 500 nM

Further lines, with some results ahead:

Ki [2] [nM] | Ki [3] [nM] | Ki [5] [nM] | Compound | Ki [4] [nM] | other results
5000 | – | – | NC[C@@H]1O[C@H](O[C@H]2[C@@H](O)[C@H](O[C@@H]3[C@@H](O)[C@H](N)C[C@H](N)[C@H]3O[C@H]3O[C@H](CN)[C@@H](O)[C@H](O)[C@H]3N)O[C@@H]2CO)[C@H](N)[C@@H](O)[C@@H]1O [KDR Kinase Inhibitor, 3] | – | Ki [1]: 5000 nM
– | 100 | 25000 | C[C@@H](N)[C@H]1CC[C@H](C(=O)Nc2ccncc2)CC1 [Y-27632] | 26000 | –
